Measured values as given in patent US9540299B2, “MTOR-independent activator of TFEB for autophagy enhancement and uses thereof” (Hong Kong Baptist University, priority 2015, dated 2017).

How the values were obtained:
3×Flag-TFEB = molecular target: T1, 3×Flag-TFEB (Homo sapiens, UniProt P19484); experiment: Nuclear translocation of Flag-TFEB in Hela cells stably expressing 3×Flag-TFEB (immunostaining, western blot); format: cell-based; conditions: analogs 1 μM, curcumin 10 μM, 12 h, Torin 1 1 μM, 2 h
T1 construct: expressed in transfected cells
T1 sequence (P19484 1-476): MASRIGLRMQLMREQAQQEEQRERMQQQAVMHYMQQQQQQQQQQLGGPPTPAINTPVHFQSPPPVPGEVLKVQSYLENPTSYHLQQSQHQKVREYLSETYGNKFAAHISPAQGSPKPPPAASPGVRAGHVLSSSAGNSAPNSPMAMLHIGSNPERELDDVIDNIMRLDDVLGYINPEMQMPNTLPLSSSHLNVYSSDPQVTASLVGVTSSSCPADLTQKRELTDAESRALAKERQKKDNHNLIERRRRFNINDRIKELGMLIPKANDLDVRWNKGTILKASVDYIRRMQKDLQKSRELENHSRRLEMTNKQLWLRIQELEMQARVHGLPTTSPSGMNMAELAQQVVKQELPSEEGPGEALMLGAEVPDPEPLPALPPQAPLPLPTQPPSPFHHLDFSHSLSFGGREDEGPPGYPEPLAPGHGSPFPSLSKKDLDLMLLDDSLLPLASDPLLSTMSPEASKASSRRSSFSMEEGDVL
Procedure: Cells were treated with curcumin (Cur, 10 μM), A2, B3 and C1 (1 μM) for 12 h. […] Data is quantified by ImageJ software and is presented as mean±SD of three replicates for each treatment conditions. At least 1000 cells are analyzed in each treatment group. *p<0.05 vs. the control (0.1% DMSO). FIG. 4C is a western blot showing the expression of endogenous TFEB. […] Data are presented as the mean±SD from three independent experiments. *p<0.05 vs. the control (0.1% DMSO). FIG. 4E is fluorescence images showing expression of 3×Flag-TFEB in Hela cells having treated with Cur (10 μM), A2, B3 and C1 (1 μM) for 12 h. Torin 1 (1 μM) treatment for 2 h is used as a positive control. Cells were fixed and stained with anti-Flag antibody. […] FIG. 4G is the western blot showing the expression of Flag-tagged TFEB in the cytosolic (Cyt.) and nuclear (Nuc.) fractions. ACTB and H3F3A (H3 histone, family 3A) are used as loading control of cytoplasmic and nuclear fraction, respectively. FIG. 4H is showing the relative intensity of TFEB in the cytosolic and nuclear fractions. Data are presented as the mean±SD from three independent experiments. *p<0.05 vs. the control (0.1% DMSO).
HeLa cells stably expressing 3×Flag-TFEB are treated with curcumin analogs E2, E3 and E4 (1 μM) for 12 hours. Torin 1 (1 μM) treatment for 2 hours is used as a positive control. Cells are fixed and stained with anti-Flag antibody (red) and DAPI (blue) (FIG. 18A). TFEB translocate into nucleus are quantified (FIG. 18B). Quantification data are presented as mean±SD of three replicates in a representative experiment. At least 500 cells are analyzed in each treatment group.
HeLa cells stably expressing 3×Flag-TFEB are treated with curcumin analogs E2, E3 and E4 (1 μM) for 12 hours. Torin 1 (1 μM) treatment for 2 hours is used as a positive control. The expression of TFEB in the cytosolic (Cyt.) and nuclear (Nuc.) fractions are determined by western blotting (FIG. 19A) and quantified (FIG. 19B). TUBB (β-tubulin) and H3F3A (H3 histone, family 3A) are used as loading control of cytoplasmic and nuclear fraction respectively. Quantification data are presented as the mean±SD from three independent experiments. *p<0.05 vs. the control (0.1% DMSO).
N2a, Hela and Hela cells stably expressing 3×-Flag-TFEB are cultured in DMEM supplemented with 10% FBS. SH-SY5Y cells are cultured in DMEM/F12 supplemented with 10% FBS. For drug treatment, the full medium is replaced by fresh Opti-MEM I and then the compounds (in 0.1% DMSO) are added to the cells and incubated for 12 h. Inducible PC12 cells overexpressing SNCA (WT and A53T) (a kind gift from Prof. David C. Rubinsztein at Cambridge University) are grown in DMEM supplemented with 10% horse serum, 5% FBS, 50 μg/ml G418, and 150 μg/ml hygromycin B at 37° C., 10% CO2. Cells are treated with 2 μg/ml doxycycline (Dox) for 24 h to induce SNCA expression. The full medium is changed to Opti-MEM I containing the testing compounds for another 48 h.
Cells are lysed on ice in 1× Lysis Buffer (9803, Life Technologies) with complete protease inhibitor mixture (04693124001, Roche Applied Science). Animal tissues are homogenized in nine volumes of ice-cold PBS supplemented with protease inhibitors. Cytosolic and nuclear fractions are isolated using protocols similar to those described previously. Anti-Flag or TFEB antibody is added to the whole cell lysates and Dynabeads® Protein G (10003D, Life Technologies) is used for immunoprecipitation. Proteins are separated by 10-15% SDS-PAGE, transferred, and blotted with the antibodies described. The blots are then incubated with secondary antibodies or the Clean-Blot IP Detection Reagent (21230, Thermo Scientific) at room temperature for 1 h. The protein signals are detected by ECL kit (32106, Pierce) and quantified using ImageJ software.
Cells are seeded on coverslips placed in 24-well plates. […]

N2a cells = experiment: LC3 puncta and tfLC3 autophagy flux imaging in N2a cells; format: cell-based, mouse; conditions: N2a cells transfected with tfLC3, 12 hours
Procedure: N2a cells are treated with E4 (1 μM) in the presence or absence of CQ for 12 hours. The cells are fixed and stained with LC3 antibody (red) and DAPI (blue). Representative cells are then selected and photographed under a DeltaVision Deconvolution Microscope (GE Healthcare).
N2a cells are transiently transfected with mRFP-GFP-LC3 (tfLC3) plasmid and then treated with E4 (1 μM) or CQ (1 μM) for 12 hours. Representative cells are then selected and photographed under a DeltaVision Deconvolution Microscope (GE Healthcare).
After transiently knockdown the expression of TFEB, N2a cells are treated with E4 (1 μM) for 12 hours, the cells were then stained with LC3 antibody (red) and DAPI (blue).
Cells are seeded on coverslips placed in 24-well plates. For autophagy flux assay, cells are transfected with tfLC3 plasmid for 24 hours and then treated with the indicated compounds. For other assays, at the end drug treatment, slices are fixed with 3.7% paraformaldehyde, permeabilized in 0.2% Triton X-100 and blocked with 5% BSA. After blocking, the slices are stained with anti-TFEB (1:200) or anti-LC3 (1:500) antibodies overnight at 4° C. […] Cells are visualized using the Eclipse 80i fluorescence microscope (Nikon Instruments Inc.) or the DeltaVision Deconvolution Microscope (GE Healthcare).

CCC(=O)N1CCN(c2ccc(-n3c(=O)ccc4cnc5ccc(-c6cnc7ccccc7c6)cc5c43)cc2C(F)(F)F)CC1 [Torin 1, reference compound]
nuclear translocation of Flag-TFEB (3×Flag-TFEB): significantly promotes

CCN(CC)CCCC(C)Nc1ccnc2cc(Cl)ccc12 (centres unmarked) [CQ, chloroquine, reference compound]
mRFP-GFP-LC3 (tfLC3) puncta (autophagy flux, autolysosome formation) (N2a cells): induced accumulation and colocalization of both GFP and mRFP fluorescence
